Test results taken from PMC11847541, “Liver fatty acid binding protein FABP1 transfers substrates to cytochrome P450 4A11 for catalysis” (The Journal of Biological Chemistry, 2025).

Tests used:
[1] = target: T1, DAUDA–FABP1 (Homo sapiens, UniProt P07148); assay: Stopped-flow kinetics of palmitate binding to DAUDA–FABP1
T1 construct: GST (N, cleaved yes); made in house; host or cells: Escherichia coli DH5α
T1 sequence (P07148 with tags, fused parts or gaps): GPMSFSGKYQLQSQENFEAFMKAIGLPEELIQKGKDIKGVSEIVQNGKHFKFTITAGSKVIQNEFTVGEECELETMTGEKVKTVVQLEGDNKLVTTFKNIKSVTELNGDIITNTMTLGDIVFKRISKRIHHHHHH
Protocol: As mentioned previously, palmitate was selected to measure binding kinetics to DAUDA–FABP1 because of the low Kd observed with the protein (Fig. 5D, Table 1). When a ligand binds to DAUDA-bound FABP1, DAUDA is displaced (potentially to the second ligand-binding site, forming a ternary complex; Figure 2, Figure 5 and Figure 2, Figure 5A) and attenuates the fluorescence of the system (Fig. 5). Taking advantage of this phenomenon, we preincubated FABP1 (0.5 μM) with DAUDA (0.5 μM) to form the fluorescent complex. This complex was then rapidly mixed with palmitate (0.5 μM to 25 μM), and the attenuation of fluorescence was monitored as palmitate binds and displaces DAUDA. The data were fit to double exponential equations, and the rate of initial binding was not observed to vary with palmitate concentration (Fig. 7). A kon value (k5) of 2.3 ± 0.2 × 10^7 M^−1 s^−1 was calculated from the data (Fig. 7A).
Figure 7 Kinetics of binding of palmitate to FABP1. A stoichiometric mixture of DAUDA and FABP1 (0.5 μM) was rapidly combined with (A) 0.5 μM, (B) 5 μM, (C) 12.5 μM, and (D) 25 μM palmitate, and the attenuation of fluorescence (λex = 335 nm, λem > 420 nm) was monitored over time (as FD → FDS, Fig. 5A). The plots were fit to double exponential equations, and the following rate constants for each phase were extracted: A, k1 11 ± 1 s^−1, k2 0.04 ± 0.003 s^−1; B, k1 16± 1s^−1, k2 0.017 ± 0.004 s^−1; C, k1 14 ± 1 s^−1, k2 0.05 ± 0.01 s^−1; D, k1 13 ± 1 s^−1, k2 0.07 ± 0.01 s^−1. Each trace corresponds to ≥6 averaged replicate traces. DAUDA, 11-dansylaminoundecanoic acid; FABP1, fatty acid binding protein.
The kon determination of FABP1 with palmitate was done in the same manner as described with DAUDA but with the modification that the solutions mixed in the stopped-flow spectrofluorometer were (A) FABP1 (1 μM) and DAUDA (1 μM, aliquoted from a stock solution prepared in K2CO3 [50 mM], see “Preparation of DAUDA stock solutions”) and (B) palmitate (1–50 μM, aliquoted from a stock solution prepared in K2CO3 [50 mM]). Both mixing solutions (2 ml) were prepared in potassium phosphate buffer (100 mM, pH 7.4). The data collection, processing, and analysis proceeded via the same steps described earlier. The only difference in interpretation is that the signal (binding of palmitate) displaces DAUDA in the FABP1-binding site, so we observe an attenuation of fluorescence.

[2] = target: T2, FABP1 (Homo sapiens, UniProt P07148); parameters: method as in PMID 10852718; details: ADIFAB system; cited from earlier work
T2 construct: GST (N, cleaved yes); made in house; host or cells: Escherichia coli DH5α
T2 sequence (P07148 with tags, fused parts or gaps): T1 sequence (P07148 with tags, fused parts or gaps)

[3] = target: T3, P450 4A11 (Homo sapiens, UniProt Q02928); assay: Fluorescence titration of Alexa-FABP1 with P450 4A11; assay type: binding; details: 10 mM potassium phosphate pH 7.4, quadratic fit
T3 construct: made in house; host or cells: E. coli
T3 sequence (Q02928 5-519): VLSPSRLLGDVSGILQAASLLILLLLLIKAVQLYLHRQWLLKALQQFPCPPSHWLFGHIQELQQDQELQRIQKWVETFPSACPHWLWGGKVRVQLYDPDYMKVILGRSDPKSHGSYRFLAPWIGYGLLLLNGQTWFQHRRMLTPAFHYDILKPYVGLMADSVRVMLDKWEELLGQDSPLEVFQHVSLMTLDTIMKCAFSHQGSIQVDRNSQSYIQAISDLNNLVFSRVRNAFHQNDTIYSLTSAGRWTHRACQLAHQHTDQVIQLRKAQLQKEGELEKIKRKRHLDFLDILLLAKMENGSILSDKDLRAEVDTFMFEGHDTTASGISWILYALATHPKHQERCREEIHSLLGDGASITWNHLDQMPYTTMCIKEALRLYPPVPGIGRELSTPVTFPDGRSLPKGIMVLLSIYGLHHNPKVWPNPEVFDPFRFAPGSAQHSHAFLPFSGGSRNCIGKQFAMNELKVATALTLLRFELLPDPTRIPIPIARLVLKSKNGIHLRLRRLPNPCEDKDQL
T3 sequence (P07148 with tags, fused parts or gaps partner): T1 sequence (P07148 with tags, fused parts or gaps)
Protocol: The Alexa-FABP1 construct was tested for P450 binding in a fluorescence titration with P450 4A11.
Figure 10 Binding of Alexa-FABP1 to P450 4A11.A, equilibrium binding titration of Alexa-FABP1 (25 nM) with P450 4A11 as the titrant (0–50 nM). Titrations were performed in 10 mM (closed circles) or 100 mM (open circles) potassium phosphate buffer (pH 7.4). A control reaction was performed with P450 101A1 (P450cam) in 100 mM KPhos (open squares). The change in fluorescence upon protein–protein binding was normalized to the corresponding change in a buffer control. […] Each data point corresponds to one independent replicate, ≥3 biological replicates were collected to confirm the effect. B, kinetics of binding of Alexa-FABP1 (0.125 μM) and P450 4A11 (0.125 μM). Six traces were averaged, and the data were fit to a single exponential curve (in red). The extracted binding rate was 2.0 ± 0.2 s^−1. FABP1, fatty acid binding protein.
Alexa-FABP1 (25 nM [estimated by an asborbance at 280 nm prior to conjugation reaction, accounting for dilution, and assuming no protein loss during the reaction]) was prepared in potassium phosphate buffer (10 mM or 100 mM, pH 7.4) in a 1 ml glass cuvette. A buffer baseline was recorded using an OLIS DM-45 spectrofluorometer (1.24 mm slit width) with excitation wavelength of 470 nm and scanning emission spectra from 500 to 600 nm. P450 4A11 (stored in 100 mM potassium phosphate buffer [pH 7.4] containing 20% glycerol) was titrated (0–50 nM) into the Alexa-FABP1 solution. The same experiment was repeated but with the P450 4A11 buffer used as the titrant to normalize the data for any solvent effect. […] As stimulation was observed by the P450 interaction, the value of one was subtracted from the normalized fluorescence values so that the curve would have an (x, y) intercept of (0, 0). Kd values were calculated fitting plots of the normalized fluorescence at emission maximum versus concentration of P450 4A11 using a quadratic equation in GraphPad Prism software.

Row | k1 (fast phase), palmitate binding to DAUDA–FABP1 ([1]; 0.5 μM palmitate) | k2 (slow phase), palmitate binding to DAUDA–FABP1 ([1]; 0.5 μM palmitate) | k1 (fast phase), palmitate binding to DAUDA–FABP1 ([1]; 5 μM palmitate) | k2 (slow phase), palmitate binding to DAUDA–FABP1 ([1]; 5 μM palmitate) | k1 (fast phase), palmitate binding to DAUDA–FABP1 ([1]; 12.5 μM palmitate) | k2 (slow phase), palmitate binding to DAUDA–FABP1 ([1]; 12.5 μM palmitate) | k1 (fast phase), palmitate binding to DAUDA–FABP1 ([1]; 25 μM palmitate) | k2 (slow phase), palmitate binding to DAUDA–FABP1 ([1]; 25 μM palmitate) | kon ([1]; DAUDA and FABP1 0.5 μM each, read-out: kon of palmitate to DAUDA–FABP1 (k5)) | Molecule | Kd [2] | Kd [3]
1 | 11 ± 1 s⁻¹ | 0.04 ± 0.003 s⁻¹ | 16 ± 1 s⁻¹ | 0.017 ± 0.004 s⁻¹ | 14 ± 1 s⁻¹ | 0.05 ± 0.01 s⁻¹ | 13 ± 1 s⁻¹ | 0.07 ± 0.01 s⁻¹ | 2.3e+07 M⁻¹ s⁻¹ | CCCCCCCCCCCCCCCC(=O)O [Palmitate (C16), palmitate] | 60 nM | 
2 |  |  |  |  |  |  |  |  |  | FABP1: delipidated recombinant liver fatty acid binding protein with C-terminal hexahistidine tag |  | ~3 nM
